Experiment [1] addresses T1, GluR1 (Rattus norvegicus, UniProt P19490).
T1 construct: expressed in transfected cells; host or cells: Xenopus oocytes injected with in vitro transcribed pGluR1 sense RNA
In words: Electrophysiological recording in Xenopus oocytes injected with GluR1 in vitro RNA. The experiment is classed as cell-based. The protocol: It depends upon the fact that when foreign mRNA is injected into Xenopus oocytes, the mRNA is translated into functional protein.
Either a λZAP cDNA preparation, or a plasmid containing the cDNA to be tested, are cut downstream from the cDNA insert with a restriction enzyme. The post-restriction digest is digested with Proteinase K and then extracted with two phenol: chloroform (1:1) extractions. The resulting DNA fragments are then ethanol precipitated. The precipitated fragments are mixed with either T3 RNA polymerase (to make sense strand), or T7 RNA polymerase (to make anti-sense strand), plus rATP, rCTP, rGTP, rUTP, and RNase inhibitor. Simultaneously, the RNA transcripts are capped with a sodium diguanosine triphosphate [G(5')ppp(5')G] cap. The water used for the above procedures is treated with diethylpyrocarbonate to inactivate RNases.
The in vitro synthesized mRNA transcripts are injected into Xenopus oocytes. 50 nl of an RNA solution, 0.2-0.6 mg/ml, is injected into the stage V oocytes. The injected oocytes are incubated at 16° C. in Barth's medium for 2-7 days before they are analyzed for the presence of functional receptors.
Voltage recordings are made by penetrating the oocyte with a micro-electrode filled with 3M KCl and connected to the bridge circuit of an appropriate voltage clamp unit, e.g., the Dagan 8500 voltage clamp unit. Voltage recordings are preferably obtained with two electrodes, a voltage electrode filled with 3M KCl and a current electrode filled with 0.25 M CsCl, 0.25 M CsF and 50 mM EGTA (ethylene glycol tetraacetic acid).
Oocytes employed herein are obtained from ovarian tissue from anesthetized adult female Xenopus. The ovarian tissue is treated with collagenase, 2 mg/ml, for two hours and then the ovarian epithelium and follicular cells are dissected away.
The plasmid pGluR1 was subsequently rescued from bacteriophage λZAPII-GluR1.
3 days prior to the recording. The oocytes were voltageclamped at -70 mV,
applied by rapid superfusion, with 5 minute intervals between drugs. Peak
currents were recorded; each number represents the average of 3 recording
from 3 different oocytes, ± SEM.
(§1) The data in FIG. 3B represent the responses of oocytes to the indicated agonists measured 3 days after injection with GluR1 (2 ng) or GluR3 (2 ng) RNA or adult rat brain hippocampus poly(A)^+ RNA (~50 ng). All values are normalized to the response obtained with […] and are presented as the mean±S.E.M. with n≥3 for all measurements.

Experiment [2] deals with T2, homomeric GluR6 receptor (Rattus norvegicus, UniProt P42260, I567V/Q621R/Y571C).
T2 construct: engineer a cDNA clone encoding the entire open reading frame of the GluR6 protein; expressed in transfected cells; host or cells: Xenopus oocytes injected with in vitro transcribed GluR6 RNA
Nature of the experiment: Current recording in Xenopus oocytes injected with GluR6 RNA (homomeric GluR6 receptor). The experiment is classed as cell-based. The conditions noted are these: for current measured at -70 mV: 10 μM kainate.

Experiment [3] relates to GluR3. It counts as cell-based, rat. How it is done: Thus, oocytes were injected with in vitro synthesized RNA transcripts derived from individual cDNA clones.
as §1

Experiment [4] has as its system oocytes injected with poly(A)+ RNA isolated from rat forebrain. It counts as cell-based. Conditions: 2-10 days after injection.
For experiment [5], the target named is GluR5-2 (Rattus norvegicus, UniProt P22756). It counts as cell-based. An excerpt:
(§2) In vitro synthesized GluR5-1 and GluR5-2 cRNAs were individually expressed in Xenopus oocytes.

The test system of experiment [6] is GluR5-1. It counts as cell-based, rat.
From the text: as §2

In experiment [7] the test system is oocytes injected with pool of in vitro transcripts from rat forebrain cDNA library. Nature of the experiment: Voltage recordings from oocytes injected with pooled in vitro transcripts of the λZAPII RTB1 cDNA library. It counts as cell-based. Conditions: 10 days after injection. The protocol:
A directional cDNA library (λZAPII RTB1; complexity: 8×10^5 elements), consisting of 18 independent sublibraries of 44,000 clones each, was constructed from this poly(A)^+ RNA using the bacteriophage expression vector λZAPII. A pool of in vitro transcripts, comprised of transcripts made separately from all 18 amplified sublibraries, was injected into oocytes. […] Subsequently, pools of 44,000 clones (=the single sublibraries), 4,000, 400 and 40 clones were tested.

The mark [8] stands for this setting: oocytes held at -100 mV, without Con A, AMPA 100 μM.
The mark [9] stands for this setting: QUIS 10 μM, AMPA 50 μM, GLU 100 μM, NMDA 30 μM plus 10 μM glycine, APB 50 μM, -70 mV, 3 days after 2 ng RNA.

Where two headings read alike, the source gives them in different places.

T2 sequence (P42260 with tags, fused parts or gaps I567V/Y571C/Q621R): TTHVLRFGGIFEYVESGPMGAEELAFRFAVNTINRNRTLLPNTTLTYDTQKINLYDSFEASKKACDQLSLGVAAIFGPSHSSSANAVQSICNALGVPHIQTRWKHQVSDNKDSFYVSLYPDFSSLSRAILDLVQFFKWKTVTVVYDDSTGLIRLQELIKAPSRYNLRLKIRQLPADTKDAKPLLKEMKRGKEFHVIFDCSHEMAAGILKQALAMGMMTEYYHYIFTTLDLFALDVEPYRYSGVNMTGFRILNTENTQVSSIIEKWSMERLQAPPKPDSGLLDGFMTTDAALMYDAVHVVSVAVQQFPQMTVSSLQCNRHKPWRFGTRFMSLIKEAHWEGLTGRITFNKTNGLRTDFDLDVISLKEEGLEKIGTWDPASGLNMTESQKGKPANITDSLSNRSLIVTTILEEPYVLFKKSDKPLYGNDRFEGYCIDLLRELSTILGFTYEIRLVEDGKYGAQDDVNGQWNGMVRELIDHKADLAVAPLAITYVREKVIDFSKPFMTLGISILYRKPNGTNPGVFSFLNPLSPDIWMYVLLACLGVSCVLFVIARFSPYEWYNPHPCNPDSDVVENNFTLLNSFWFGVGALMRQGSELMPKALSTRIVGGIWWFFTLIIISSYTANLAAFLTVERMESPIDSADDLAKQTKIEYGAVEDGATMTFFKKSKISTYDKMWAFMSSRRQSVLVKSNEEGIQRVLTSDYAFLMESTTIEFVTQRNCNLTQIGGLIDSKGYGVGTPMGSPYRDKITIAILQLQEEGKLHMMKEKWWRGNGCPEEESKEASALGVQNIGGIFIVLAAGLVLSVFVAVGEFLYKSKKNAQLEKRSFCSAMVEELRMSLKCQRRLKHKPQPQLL
Chain of GluR5-2 (P22756 31-949): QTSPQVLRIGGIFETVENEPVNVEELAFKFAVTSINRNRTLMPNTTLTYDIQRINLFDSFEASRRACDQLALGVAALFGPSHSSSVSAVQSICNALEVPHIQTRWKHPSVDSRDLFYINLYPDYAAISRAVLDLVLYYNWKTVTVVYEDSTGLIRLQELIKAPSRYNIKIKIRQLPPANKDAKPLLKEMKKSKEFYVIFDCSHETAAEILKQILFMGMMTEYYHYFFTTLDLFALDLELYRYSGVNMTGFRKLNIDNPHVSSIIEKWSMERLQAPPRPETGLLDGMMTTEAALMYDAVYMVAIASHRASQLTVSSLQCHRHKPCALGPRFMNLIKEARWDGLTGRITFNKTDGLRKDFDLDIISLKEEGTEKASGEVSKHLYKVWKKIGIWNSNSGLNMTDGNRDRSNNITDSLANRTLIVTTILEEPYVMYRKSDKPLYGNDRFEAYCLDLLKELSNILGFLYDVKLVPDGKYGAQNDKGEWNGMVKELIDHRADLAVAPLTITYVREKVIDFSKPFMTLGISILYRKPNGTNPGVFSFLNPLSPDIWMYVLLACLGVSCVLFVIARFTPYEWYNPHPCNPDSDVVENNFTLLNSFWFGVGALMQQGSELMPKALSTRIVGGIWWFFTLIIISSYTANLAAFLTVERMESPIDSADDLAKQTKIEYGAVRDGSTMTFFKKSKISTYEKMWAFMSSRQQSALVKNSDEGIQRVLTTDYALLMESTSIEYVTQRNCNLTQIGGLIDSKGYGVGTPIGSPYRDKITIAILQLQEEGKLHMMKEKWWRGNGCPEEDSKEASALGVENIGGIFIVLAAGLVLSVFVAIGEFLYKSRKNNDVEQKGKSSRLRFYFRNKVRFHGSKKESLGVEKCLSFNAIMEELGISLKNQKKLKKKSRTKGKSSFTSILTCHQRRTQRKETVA
T1 sequence (P19490 19-907): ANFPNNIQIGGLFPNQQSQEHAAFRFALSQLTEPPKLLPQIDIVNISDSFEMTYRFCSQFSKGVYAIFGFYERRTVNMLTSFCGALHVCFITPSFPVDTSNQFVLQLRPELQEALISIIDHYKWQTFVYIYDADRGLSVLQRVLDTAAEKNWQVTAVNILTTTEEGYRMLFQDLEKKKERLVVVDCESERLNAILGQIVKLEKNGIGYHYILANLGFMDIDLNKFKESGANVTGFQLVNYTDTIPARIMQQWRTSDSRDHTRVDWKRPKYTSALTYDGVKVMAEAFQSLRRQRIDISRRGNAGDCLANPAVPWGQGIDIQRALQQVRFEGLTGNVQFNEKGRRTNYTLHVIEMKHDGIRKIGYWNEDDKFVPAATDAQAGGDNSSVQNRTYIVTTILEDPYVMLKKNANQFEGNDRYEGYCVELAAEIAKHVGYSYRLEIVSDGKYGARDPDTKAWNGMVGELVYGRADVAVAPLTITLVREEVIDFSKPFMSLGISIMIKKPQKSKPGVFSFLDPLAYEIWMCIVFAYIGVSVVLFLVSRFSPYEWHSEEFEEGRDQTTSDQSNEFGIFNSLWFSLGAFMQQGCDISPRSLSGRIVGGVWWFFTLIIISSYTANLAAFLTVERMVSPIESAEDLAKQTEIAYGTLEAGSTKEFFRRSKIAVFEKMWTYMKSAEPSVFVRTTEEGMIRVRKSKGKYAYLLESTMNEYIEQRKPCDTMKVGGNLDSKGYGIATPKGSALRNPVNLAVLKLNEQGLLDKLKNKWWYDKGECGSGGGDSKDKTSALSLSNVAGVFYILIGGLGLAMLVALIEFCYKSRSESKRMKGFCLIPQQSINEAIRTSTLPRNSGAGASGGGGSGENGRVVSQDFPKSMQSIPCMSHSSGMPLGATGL

`O=C(O)[C@H]1CCCN[C@H]1C(=O)O` (relative stereo) [PDA, 2,3cis-piperidine dicarboxylic acid]: in experiment [1], the “Compound Alone (%)” value was 2.5 ± 0.7%.
For `Cc1onc(O)c1CC(N)C(=O)O` (stereo not drawn) [AMPA, α-amino-3-hydroxy-5-methyl-isoxazole-4-propionic acid], the “response of Con A treated oocytes (in words)” value in experiment [2] is given as “did not respond”. In experiment [2] (AMPA 100 μM, Con A treated oocytes), the “effect of coapplication on kainate-evoked (1 μM) responses” value is recorded as “no effect”. For the same compound, the “current evoked by agonist (in words)” value in experiment [2] (setting [8]) is recorded as “did not evoke any detectable current”.
As for `NC(CCP(=O)(O)O)C(=O)O` (stereo not shown) [APB, 2-amino-4-phosphonobutyric acid], the “response of oocytes to agonist (in words)” value in experiment [3] (setting [9]) and in experiment [1] (setting [9]) was “No detectable responses” in each case. Also, the “response to selective agonists (in words)” value in experiment [4] was “gave no response”. In addition, the “membrane depolarization elicited by agonist (in words)” value (“membrane depolarization elicited” below) is “did not elicit membrane depolarizations” in experiment [5] (KA 100 MM, AMPA 50 μM, quisqualate 10 μM, APB 100 μM, NMDA 100 μM with 10 μM glycine) and “did not elicit membrane depolarizations” in experiment [6] (KA, AMPA 50 μM, quisqualate 10 μM, APB 100 μM, NMDA 100 μM with 10 μM glycine).
Consider `NC(CCCP(=O)(O)O)C(=O)O` (stereo not shown) [APV, 2amino-5-phospho-novaleric acid], for which the “Compound Alone (%)” value in experiment [1] (% of the response evoked by 30 μM kainate immediately before drug application, compounds at 1 mM (kainate 30 μM), -70 mV, peak currents, 3 oocytes, ± SEM) came to 3.1 ± 1.4%.
For `N#Cc1cc2[nH]c(=O)c(=O)[nH]c2cc1[N+](=O)[O-]` [CNQX, 6-nitro-7-cyano-quinoxaline-2,3-dione], in experiment [2], the “block of agonist-evoked responses (in words)” value is “blocked both quisqualate and kainate-evoked responses”.
Turning to `O=C(O)C1CN(CCCP(=O)(O)O)CCN1` (stereo not shown) [CPP, 3 (2carboxypiperazin-4-yl)propyl-1-phosphate], the “Compound Alone (%)” value in experiment [1] is on record as 9.1 ± 0.7%.
As for `CCOC(=O)CC[C@H](N)C(=O)OCC` [GDEE, glutamate diethylester], in experiment [1], the “Compound Alone (%)” value was 24.8 ± 5.7%. Moreover, in experiment [1] (each at 1 mM), the “agonist properties (in words)” value is “weak agonist properties”.
As for `O=C(O)c1cc(=O)c2ccccc2[nH]1` [Kynurenic acid], the “Compound Alone (%)” value in experiment [1] is 3.4 ± 0.2%.
For the compound `CN[C@H](CC(=O)O)C(=O)O` [NMDA, N-methyl-D-aspartic acid], the “response of oocytes to agonist (in words)” value in experiment [3] and in experiment [1] was “No detectable responses” throughout. The “response to selective agonists (in words)” value in experiment [4] is listed as “elicited smooth responses with fast onsets”. Further, in experiment [7], the “response to agonist (in words)” value is given as “No responses”. The “membrane depolarization elicited” value in experiment [5] and in experiment [6] was “did not elicit membrane depolarizations” each time. In experiment [2], the “response of Con A treated oocytes (in words)” value is “did not respond”. Moreover, the “response evoked by glutamate receptor agonists” value in experiment [1] is “no responses”.
As to `NCC(=O)O` [glycine], in experiment [1], the “potentiation of the KA response” value is “did not potentiate” and the “response evoked by unrelated neurotransmitter receptor agonists” value was “failed to evoke responses”.
Take `C=C(C)[C@H]1CN[C@H](C(=O)O)[C@H]1CC(=O)O` [kainate, kainic acid]: the “current measured at -70 mV” value came to 330 nA in experiment [2] (Con A treated, modified Ringer solution (NaCl substituted by sodium methanesulfonate)); 2.3 μa in experiment [2] (Ringer solution, after Con A treatment); 30 nA in experiment [2] (Ringer solution, before Con A treatment). The “time for full recovery from desensitization” value in experiment [2] (after 100 μM kainate for 30 seconds) is on record as “approximately 15 minutes”. Besides, the “response of Con A treated oocytes (in words)” value in experiment [2] (aspartate 100 μM, NMDA 100 μM with 3 μM glycine, AMPA 10-1000 μM) is recorded as “responded”. The “current evoked by agonist (in words)” value in experiment [2] (setting [8]) is recorded as “evoked inward currents that desensitized”. The 100% current response in experiment [1] (30 μM kainate, -70 mV, depending on the oocyte) is 40-200 nA.
Consider `CN1CCCC1c1cccnc1` (stereo not shown) [nicotine], for which, in experiment [1], the “response evoked by unrelated neurotransmitter receptor agonists” value is reported as “failed to evoke responses”.
On to `N[C@@H](Cn1oc(=O)[nH]c1=O)C(=O)O` [quisqualate, quisqualic acid], for which the “membrane depolarization elicited” value in experiment [5] is given as “did not elicit membrane depolarizations”. Also, the “current evoked by agonist (in words)” value in experiment [2] is “activated only small inward currents”. For the same compound, the “effect on kainate-evoked current (in words)” value in experiment [2] (without Con A) is reported as “attenuated a subsequent kainate evoked current”.
For `NCCc1c[nH]c2ccc(O)cc12` [serotonin], the “response evoked by unrelated neurotransmitter receptor agonists” value in experiment [1] (concentrations as high as 1 mM) is recorded as “failed to evoke responses”.
Regarding `N[C@H](CCC(=O)NCC(=O)O)C(=O)O` [γ-DGG, D-glutamylglycine], the “Compound Alone (%)” value in experiment [1] is on record as -0.1 ± 0.5%.
Consider `NCCCC(=O)O` [γ-aminobutyric acid], for which, in experiment [1] (concentrations as high as 1 mM), the “response evoked by unrelated neurotransmitter receptor agonists” value was “failed to evoke responses”.
As to concanavalin A [Con A], the effect on desensitization entry in experiment [2] (10 μM Con A for 5 minutes) is “efficiently decreases desensitization”.

Source of the values: patent US5945509A, “Glutamate receptor compositions and method” (The Salk Institute for Biological Studies, priority 1995, dated 1999).
